Earlier results, collected in publication PMC10017685 (Nature Communications, 2023).

test system: human erythrocytes; set-up: method as in DBAASP; details: toxicity class label 1 or 0, meaning of the labels not given; DBAASP HC50 data, human erythrocytes; ref DBAASP; cited from earlier work

AAKKGCWTVSIPPKPCF [DBAASP_12530] and AFALIAGALYRIFHRR [DBAASP_16955] are the same in “Class (dedicated toxicity dataset used for toxicity classifier evaluation)” value (from here on “Class”): 0 for the first, 0 for the second.

Compared with AIGSILGALAKGLPTLISWIKNR [DBAASP_2156], AILTTLANWARKFL [DBAASP_3561] is lower in “Class” value: 1 for the first, 0 for the second.

AKRHHGYKRKFH [DBAASP_732] and ALFKTMLKKLGTMAL [DBAASP_10098] are the same in “Class” value: 0 for the first, 0 for the second.

ALHKTMLKKLGTMAL [DBAASP_10090] and ALLKTMLKKLGTMAL [DBAASP_10104] are the same in “Class” value: 0 for the first, 0 for the second.

Compared with ALWKSLLKNVGKA [DBAASP_11806], ALWKTLLKKVLKAAA [DBAASP_7356] is higher in “Class” value: 0 for the first, 1 for the second.

ALWKTMLKKLGT [DBAASP_10094] and ALWKTMLKKLGTM [DBAASP_10093] are the same in “Class” value: 0 for the first, 0 for the second.

ALWKTMLKKLGTMA [DBAASP_10092] and ALWKTMLKKLGTMAL [DBAASP_10095] are the same in “Class” value: 0 for the first, 0 for the second.

ALWKTMLKKLGTMALHAGK [DBAASP_10088] and ALYKTMLKKLGTMAL [DBAASP_10103] are the same in “Class” value: 0 for the first, 0 for the second.

AVDLAKIANKVLSSLF [DBAASP_2207] and CAKAKAKAGSGAKAKAKAC [DBAASP_351] are the same in “Class” value: 0 for the first, 0 for the second.

CFKFKFKFGSGFKFKFKFC [DBAASP_352] and CVKVKVKVGSGVKVKVKVC [DBAASP_347] are the same in “Class” value: 0 for the first, 0 for the second.

CVKVQVKVGSGVKVQVKVC [DBAASP_350] and CVKVRVKVGSGVKVRVKVC [DBAASP_349] are the same in “Class” value: 0 for the first, 0 for the second.

CVKVSVKVGSGVKVSVKVC [DBAASP_348] and CWKWKWKWGSGWKWKWKWC [DBAASP_353] are the same in “Class” value: 0 for the first, 0 for the second.

Going from DIFGAIWPLALGALKNLIK [DBAASP_9407] to DSHAKRHHGYKRKFHEKHHSHRGY [DBAASP_15], the “Class” value falls from 1 to 0.

First: FFFFKKKKK [DBAASP_15834]
Second: FFFLSRIF [DBAASP_3232]
The “Class” value of the first is higher: 1 for the first, 0 for the second.

First: FFGKVLKLIRKIF [DBAASP_2255]
Second: FFGSVLKLIPKIL [DBAASP_5799]
The “Class” value of the first is higher: 1 for the first, 0 for the second.

Going from FFGWLIKGAIHAGKAIHGLIHRRRH [DBAASP_3173] to FFHHAFRGIVHVGKTIHRLVTG [DBAASP_9003], the “Class” value falls from 1 to 0.

First: FFHHFARGIVHVGKTIHRLVTG [DBAASP_9009]
Second: FFHHIFRGIVHIGKTIHRLVTG [DBAASP_9010]
The “Class” value of the first is lower: 0 for the first, 1 for the second.

FFHHIFRGIVHVGKKIHRLVKG [DBAASP_9984] and FFHHIFRGIVHVGKKIHRLVTG [DBAASP_9986] are the same in “Class” value: 0 for the first, 0 for the second.

First: FFHHIFRGIVHVGKTIHRLVTG [DBAASP_4867]
Second: FFHHIFRGIVHVGKTVHRLVTG [DBAASP_9008]
The “Class” value of the first is higher: 1 for the first, 0 for the second.

FFHHIFRGVVHVGKTIHRLVTG [DBAASP_9007] and FFHHVFRGIVHVGKTIHRLVTG [DBAASP_9006] are the same in “Class” value: 0 for the first, 0 for the second.

FFLLSLIPSAISAIKKI [DBAASP_8438] and FFPGIIKVAGAILPTAICAITKRC [DBAASP_10252] are the same in “Class” value: 0 for the first, 0 for the second.

FFPIIAGMAAKLIPSLFCKITKKC [DBAASP_4209] and FFPIIAGMAAKVICAITKKC [DBAASP_4211] are the same in “Class” value: 1 for the first, 1 for the second.

Compared with FFPIVGKLLSGLF [DBAASP_1882], FFPLIFGALSSILPKIL [DBAASP_18209] is higher in “Class” value: 0 for the first, 1 for the second.

FFRLLFHGVHHGGGYLNAA [DBAASP_1428] and FFRLLFHGVHHVGKIKPRA [DBAASP_1429] are the same in “Class” value: 0 for the first, 0 for the second.

First: FIGAIARLLSKIF [DBAASP_1465]
Second: FIGALLRPALKLLAGK [DBAASP_5719]
The “Class” value of the first is higher: 1 for the first, 0 for the second.

Going from FIGMIPGLIGGLISAIK [DBAASP_9867] to “FIHHAAGGLFSAGKAIHRLIRRRRR [DBAASP_17363]”, the “Class” value falls from 1 to 0.

FIHHIIGGLFSAGKAIHRLIRRRRR [DBAASP_5623] and FIHHIIGGLFSVGKHIHSLIHGH [DBAASP_12673] are the same in “Class” value: 1 for the first, 1 for the second.

First: FIHHIIGGLFSVGKHIHSLIHRRRR [DBAASP_17379]
Second: FKRIVQRIKDFLR [DBAASP_3393]
The “Class” value of the first is higher: 1 for the first, 0 for the second.

First: FLAGLIGGLAKML [DBAASP_1978]
Second: FLGAIAGVAAKFLPKVFCFITKKC [DBAASP_6167]
The “Class” value of the first is lower: 0 for the first, 1 for the second.

FLGALFKVASKLVPAAICSISKKC [DBAASP_15602] and FLGALIKGAIHGGRFIHGMIQNHH [DBAASP_1413] are the same in “Class” value: 0 for the first, 0 for the second.

FLGALLKIGAKVLPSVLCGIFKKC [DBAASP_14203] and FLGLLFHGVHHVGKWIHGLIHGHH [DBAASP_1001] are the same in “Class” value: 1 for the first, 1 for the second.

FLGSIVGALASALPSLISKIRN [DBAASP_2209] and “FLGSLFSIGSKLLPGVIKLFQRKKQ [DBAASP_17526]” are the same in “Class” value: 1 for the first, 1 for the second.

FLIGMTQGLICLITRKC [DBAASP_1477] and FLKGIKGMLGKLF [DBAASP_9109] are the same in “Class” value: 0 for the first, 0 for the second.

FLKGIKGMLGKLL [DBAASP_9112] and FLKGIVGKLGKLF [DBAASP_9110] are the same in “Class” value: 0 for the first, 0 for the second.

Compared with FLKGIVGMLGKLF [DBAASP_8203], FLKGIVGMLGKLL [DBAASP_9111] is lower in “Class” value: 1 for the first, 0 for the second.

Compared with FLKGIVGMLGKLW [DBAASP_9113], FLKWALKVAAK [DBAASP_16466] is lower in “Class” value: 1 for the first, 0 for the second.

FLKWALKWAAK [DBAASP_16467] and FLPAALAGIGGILGKLF [DBAASP_9469] are the same in “Class” value: 0 for the first, 0 for the second.

Compared with FLPAIAGLAAKFLPKIFCAITKKC [DBAASP_13908], FLPAIAGVAAKFLPKIFCAITKKC [DBAASP_13909] is lower in “Class” value: 1 for the first, 0 for the second.

Going from FLPAIVGAAAKFLPKIFCAISKKC [DBAASP_4213] to FLPAVLKVAAHILPTAICAISRRC [DBAASP_5694], the “Class” value falls from 1 to 0.

Going from FLPFLKSILGKIL [DBAASP_13349] to FLPFLLSALPKVFCFFSKKC [DBAASP_6702], the “Class” value rises from 0 to 1.

FLPFVGNLLKGLL [DBAASP_1881] and FLPGILKVAAK [DBAASP_16464] are the same in “Class” value: 0 for the first, 0 for the second.

FLPGILKVAANVVPGVI [DBAASP_16463] and FLPGILKVAANVVPGVICAITKKC [DBAASP_16462] are the same in “Class” value: 0 for the first, 0 for the second.

First: FLPGLIKAAVGVGSTILCKITKKC [DBAASP_8373]
Second: FLPIIAGAAAKVVEKIFCAISKKC [DBAASP_4217]
The “Class” value of the first is lower: 0 for the first, 1 for the second.

FLPIIAGIAAKFLPKIFCTISKKC [DBAASP_4214] and FLPIIAGMAAKVICAITKKC [DBAASP_4210] are the same in “Class” value: 1 for the first, 1 for the second.

First: FLPIIGQLLSGLL [DBAASP_4222]
Second: FLPILAGLAAKIVPKLFCLATKKC [DBAASP_2201]
The “Class” value of the first is lower: 0 for the first, 1 for the second.

FLPILAGLAAKLVPKVFCSITKKC [DBAASP_4220] and FLPILAGLAANILPKVFCSITKKC [DBAASP_4221] are the same in “Class” value: 1 for the first, 1 for the second.

First: FLPILASLAAKFGPKLFSLVTKKS [DBAASP_4418]
Second: FLPILASLAAKLGPKLFCLVTKKC [DBAASP_3537]
The “Class” value of the first is lower: 0 for the first, 1 for the second.

First: FLPIVAGLAANFLPKIVCKITKKC [DBAASP_1889]
Second: FLPIVGKLLSGLF [DBAASP_1883]
The “Class” value of the first is higher: 1 for the first, 0 for the second.

FLPIVGRLISGIL [DBAASP_13347] and FLPIVGRLISGLL [DBAASP_5287] are the same in “Class” value: 0 for the first, 0 for the second.
